Laboratory results as given in PubChem BioAssay (NCI).
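Each compound was tested at five concentrations against cells in 96-well plates for 48 hours. GI50 is the concentration that inhibits growth by half. At the TGI there is no net growth.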

Key:
Assay in all cases: inhibition of tumour cell growth, NCI panel, 48 h
MOLT-4 leukemia = test system: MOLT-4 leukemia
SNB-19 CNS = test system: SNB-19 CNS
OVCAR-4 ovarian = test system: OVCAR-4 ovarian
NCI-H23 lung = test system: NCI-H23 lung
OVCAR-3 ovarian = test system: OVCAR-3 ovarian
LOX IMVI melanoma = test system: LOX IMVI melanoma
UO-31 renal = test system: UO-31 renal
MALME-3M melanoma = test system: MALME-3M melanoma
SN12C renal = test system: SN12C renal
SK-MEL-5 melanoma = test system: SK-MEL-5 melanoma

Compound	GI50 (MOLT-4 leukemia)	TGI (MOLT-4 leukemia)	GI50 (SNB-19 CNS)	TGI (SNB-19 CNS)	GI50 (OVCAR-4 ovarian)	TGI (OVCAR-4 ovarian)	GI50 (NCI-H23 lung)	TGI (NCI-H23 lung)	GI50 (OVCAR-3 ovarian)	TGI (OVCAR-3 ovarian)	GI50 (LOX IMVI melanoma)	TGI (LOX IMVI melanoma)	GI50 (UO-31 renal)	TGI (UO-31 renal)	GI50 (MALME-3M melanoma)	TGI (MALME-3M melanoma)	GI50 (SN12C renal)	TGI (SN12C renal)	GI50 (SK-MEL-5 melanoma)	TGI (SK-MEL-5 melanoma)
CCCCCCCCCCCCC(=O)[O-].CCCCCCCCCCCCC(=O)[O-].CCCCCCCCCCCCC(=O)[O-].CCCCCCCCCCCCC(=O)[O-].[Mo+2].[Mo+2]	3570 nM	22.5 µM	26.5 µM	> 100 µM	10.2 µM	24.2 µM	17.9 µM	40.6 µM	12.4 µM	24.9 µM	12.1 µM	25.2 µM	14.7 µM	41.9 µM	11400 nM	28 µM				
S=c1ssc(Sc2ccccn2)c1Cl	2530 nM	5.84 µM	17 µM	41 µM	5.2 µM	> 100 µM	17.2 µM	62.9 µM	13.2 µM	25.9 µM	5.09 µM	17 µM	6.51 µM	> 100 µM			13.2 µM	25.9 µM	3740 nM	15.3 µM
O=C(O)c1c[nH]cc1C(=O)O		> 100 µM		> 100 µM		> 100 µM		> 100 µM		> 100 µM		> 100 µM		> 100 µM		> 100 µM		> 100 µM		> 100 µM
COc1cc(Oc2c(O)c(C)c(OC)c(C(C)=O)c2O)c(C(C)=O)c(O)c1C				> 100 µM		> 100 µM		94.9 µM		> 100 µM		> 100 µM		> 100 µM		> 100 µM		> 100 µM		> 100 µM
COC(=O)C(=O)C(C(=O)C=C(C)C)C(=O)C(=O)Nc1cccc(C(C)=O)c1 (centres undefined)		> 100 µM		> 100 µM		> 100 µM		> 100 µM		> 100 µM		> 100 µM		> 100 µM		> 100 µM		> 100 µM		> 100 µM
CCN1C(=O)N(CC)C2C1NN=c1s/c(=C3\C(=O)N(C)c4ccccc43)c(=O)n12 (centres undefined)	1700 nM	> 100 µM	2.89 µM	> 100 µM	8.51 µM	> 100 µM	3.24 µM	> 88.1 µM	0.382 µM	8.18 µM	0.958 µM	> 100 µM	1.28 µM	> 100 µM	993 nM	> 100 µM	2.89 µM	> 100 µM	837 nM	> 89.2 µM
O=C1C(=O)N(C2C3CC4CC(C3)CC2C4)C(=O)C(=O)C1c1nc2ccccc2o1 (centres undefined)				> 100 µM		> 100 µM		> 100 µM		54 µM		> 100 µM		> 100 µM		> 100 µM		> 100 µM		
O=C1CC2C(=O)N(Cc3ccccc3)C1C(S(=O)(=O)c1ccccc1)C2S(=O)(=O)c1ccccc1 (centres undefined)		7.72 µM				4.74 µM		10.7 µM		3.65 µM		3.32 µM		22.6 µM		3.87 µM		3.18 µM		29.2 µM
C=C(C)[C@@H]1CC[C@@]2(C)[C@H]1[C@H]1CCC3[C@@]4(C)CC[C@H](O)C(C)(C)[C@@H]4CC[C@@]3(C)[C@]1(C)C[C@@H]2O (some centres undefined)		> 100 µM		> 100 µM				> 100 µM		> 100 µM		> 100 µM				> 100 µM		> 100 µM		57.2 µM
Cn1cc(-c2ccc(CNc3cc(-c4cnc5cc(OCCCN6CCCC6)ccn45)ncn3)cc2)cn1	2760 nM	> 100 µM	2.5 µM	8.43 µM	1.88 µM	3.93 µM			1.9 µM	4.13 µM	1.75 µM	3.4 µM	1.41 µM	2.82 µM	1280 nM	2.94 µM	1.82 µM	3.61 µM	1510 nM	2.85 µM
C/C(=N\NC(N)=O)C(CN(C)C)C(c1ccccc1)c1c(O)c2ccccc2oc1=O (centres undefined)		> 100 µM		> 100 µM		> 100 µM		> 100 µM		> 100 µM		> 100 µM		> 100 µM		> 100 µM		> 100 µM		> 100 µM
C/C=C(/CCCCNCCCC)[Si](C)(C)C		31.2 µM		31.8 µM				31.9 µM		28.3 µM		28.3 µM		31.4 µM		33.2 µM		30.5 µM		26.6 µM
O=C(Cc1ccccc1)N/N=C(\C1=Nc2ccc([N+](=O)[O-])cc2NC1O)C(O)c1ccc([N+](=O)[O-])cc1 (centres undefined)				> 100 µM				> 100 µM		> 100 µM		> 100 µM		> 100 µM		> 100 µM		> 100 µM		> 100 µM
C=C(N=[N+]=[N-])c1cn(C2CC(O)C(CO)O2)c(=O)[nH]c1=O (centres undefined)		> 100 µM		> 100 µM				> 100 µM		> 100 µM		> 100 µM		> 100 µM		> 100 µM		> 100 µM		> 100 µM
Cc1c2ccncc2c(C)c2c1[nH]c1ccc(OC(C)(C)C)cc12		4.66 µM		7.53 µM		4.21 µM		24.9 µM		3.42 µM		7.53 µM		4.3 µM		3.31 µM				4.9 µM
C=CCc1ccc(O)c(-c2cc(C3Oc4c(-c5cc(CC=C)ccc5O)cc(O)cc4[C@@H]3CO)ccc2O)c1 (some centres undefined)				78.7 µM		> 100 µM		76.4 µM		74.5 µM		32.3 µM		> 100 µM		> 100 µM		> 100 µM		65 µM
Nc1nc(OCc2ccccc2)nc2[nH]ncc12	24300 nM	> 100 µM	26.3 µM	83.2 µM	17.5 µM	63.4 µM	15.7 µM	32.7 µM	11.5 µM	25.2 µM	15 µM	36.2 µM	20 µM	> 100 µM			13.9 µM	28.5 µM	14900 nM	28.3 µM
CC(C)[C@@H](COC(C)(C)C)N=CN1CCc2c([nH]c3ccccc23)C1		> 100 µM		> 100 µM		> 100 µM		> 100 µM		> 100 µM		> 100 µM		> 100 µM				> 100 µM		> 100 µM
O=C(Nc1cc(Cl)c(Cl)cc1Cl)C(=O)C(C(=O)c1ccc(Cl)c(Cl)c1)C1OC(=O)c2ccccc21 (centres undefined)		> 100 µM		49.8 µM		77.8 µM				32.6 µM		35 µM		30.6 µM				52.3 µM		
